Values quoted from earlier work as cited in patent publication US20080213192A1, “AEROSOL LOTION FORMULATIONS” (Schering-Plough Healthcare Products, Inc., priority 2006, published 2008).

Conditions: Raval and Parrott, J. Pharm. Sci. 1967

pH above which methylparaben hydrolyzes: > 6
SMILES: COC(=O)c1ccc(O)cc1 [methylparaben]
